Target: T1, AXL kinase (Homo sapiens, UniProt P30530)
T1 construct: purchased Invitrogen PV4803
T1 sequence (P30530 26-894): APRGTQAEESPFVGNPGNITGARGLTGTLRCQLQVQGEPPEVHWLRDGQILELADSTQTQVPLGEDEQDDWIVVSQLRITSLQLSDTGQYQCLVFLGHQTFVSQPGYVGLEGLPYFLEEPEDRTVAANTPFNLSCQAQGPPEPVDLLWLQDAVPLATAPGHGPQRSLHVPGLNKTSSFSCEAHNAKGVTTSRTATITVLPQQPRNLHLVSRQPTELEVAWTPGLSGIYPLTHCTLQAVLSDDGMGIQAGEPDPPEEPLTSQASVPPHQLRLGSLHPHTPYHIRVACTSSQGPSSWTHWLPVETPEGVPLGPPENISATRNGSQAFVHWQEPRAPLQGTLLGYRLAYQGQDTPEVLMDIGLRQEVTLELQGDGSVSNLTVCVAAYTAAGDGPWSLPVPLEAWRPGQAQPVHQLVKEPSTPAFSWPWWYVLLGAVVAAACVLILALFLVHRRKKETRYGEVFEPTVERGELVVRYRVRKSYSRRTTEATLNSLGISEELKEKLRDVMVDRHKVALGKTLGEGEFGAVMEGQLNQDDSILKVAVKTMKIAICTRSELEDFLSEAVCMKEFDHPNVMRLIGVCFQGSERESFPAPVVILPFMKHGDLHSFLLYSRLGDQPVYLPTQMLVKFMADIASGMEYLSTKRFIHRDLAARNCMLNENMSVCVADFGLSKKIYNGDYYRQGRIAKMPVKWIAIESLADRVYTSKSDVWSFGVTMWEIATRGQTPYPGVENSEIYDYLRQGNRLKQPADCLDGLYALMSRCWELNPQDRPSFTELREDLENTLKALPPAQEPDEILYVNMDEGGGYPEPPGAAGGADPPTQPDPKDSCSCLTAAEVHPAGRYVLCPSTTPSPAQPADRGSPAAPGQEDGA
Assay: IC50 test on AXL kinase (Z′-LYTE FRET kinase activity detection)
Assay type: biochemical
Conditions: Z′-LYTE FRET peptide assay, 1 h reaction
Description: Kinase activity detection: The activity of compounds on kinases was detected by a secondary reaction which used the Z′-LYTE™ technique (a detection using fluorescence, enzyme coupling, and based on differences in susceptibility of phosphorylated and non-phosphorylated polypeptides to proteolytic cleavage), followed the fluorescence resonance energy transfer (FRET) principle, and used Z′-LYTE™ FRET peptide substrates (Invitrogen, Z′-LYTE™ KINASE ASSAY KIT—TYR 2 PEPTIDE, PV3191). AXL kinase (invitrogen, PV4803) was diluted stepwise, FRET peptide was then added, followed by ATP, then by compounds at different concentrations, reacted for 1 h, site-specific proteases were then added to recognize and cleave non-phosphorylated FRET peptides, reacted for 1 h, and […] at 445 nm and 520 nm were detected using excitation wavelength of 400 nm.

Row | IC50 | Molecule
1 | 324 nM | C=C(C)c1ccc2c(c1)c(=O)c(C(=O)Nc1ccc(Oc3ncnc4[nH]cc(-c5ccccc5)c34)c(F)c1)c(C)n2C [TL50167, N-(3-fluoro-4-(5-phenyl-7H-pyrrolo[2,3-d]pyrimidin-4-yloxy)phenyl)-1,2-dimethyl-4-oxo-6-(prop-1-en-2-yl)-1,4-dihydroquinoline-3-carboxamide]
2 | 720 nM | COc1cc2ncnc(Oc3ccc(NC(=O)c4c5n(c6cc(N7CCN(Cc8oc(=O)oc8C)CC7)c(F)cc6c4=O)C(C)S5)cc3F)c2cc1OC (stereo not drawn) [GDL5000082, N-(4-((6,7-dimethoxyquinazolin-4-yl)oxy)-3-fluorophenyl)-6-fluoro-1-methyl-7-(4-((5-methyl-2-oxo-1,3-dioxol-4-yl)methyl)piperazin-1-yl)-4-oxo-1,4-dihydro-[1,3]thiazeto[3,2-a]quinoline-3-carboxamide]
3 | > 10000 nM | Cc1c(C(=O)Nc2ccc(Oc3ncnc4[nH]cc(-c5ccccc5)c34)c(F)c2)c(=O)c2ccc(Cl)cc2n1C [TL50080, 7-chloro-N-(3-fluoro-4-((5-phenyl-7H-pyrrolo[2,3-d]pyrimidin-4-yl)oxy)phenyl)-1,2-dimethyl-4-oxo-1,4-dihydroquinoline-3-carboxamide]
4 | > 10000 nM | Cc1c(C(=O)Nc2ccc(Oc3ncnc4[nH]ccc34)c(F)c2)c(=O)c2cc(Cl)ccc2n1C [TL50046, N-(4-((7H-pyrrolo[2,3-d]pyrimidin-4-yl)oxy)-3-fluorophenyl)-6-chloro-1,2-dimethyl-4-oxo-1,4-dihydroquinoline-3-carboxamide]
5 | > 10000 nM | Cc1c(C(=O)Nc2ccc(Oc3ncnc4[nH]cc(-c5ccccc5)c34)c(F)c2)c(=O)c2cc3ccccc3cc2n1C [TL50198, N-(3-fluoro-4-((5-phenyl-7H-pyrrolo[2,3-d]pyrimidin-4-yl)oxy)phenyl)-1,2-dimethyl-4-oxo-1,4-dihydrobenzo[g]quinoline-3-carboxamide]
6 | 157 nM | CCc1ccc2c(c1)c(=O)c(C(=O)Nc1ccc(Oc3ncnc4[nH]ccc34)c(F)c1)c(C)n2C [TL4800147]
7 | 1080 nM | COc1cc2ncnc(Oc3ccc(NC(=O)c4cn5c6c(c(N7CCN(C)CC7)c(F)cc6c4=O)OC[C@@H]5C)cc3F)c2cc1OC [GDL5000111, (S)—N-(4-((6,7-dimethoxyquinazolin-4-yl)oxy)-3-fluorophenyl)-9-fluoro-3-methyl-10-(4-methylpiperazin-1-yl)-7-oxo-3,7-dihydro-2H-[1,4]oxazino[2,3,4-ij]quinoline-6-carboxamide]
8 | 110 nM | O=C(Nc1ccc(Oc2ncnc3[nH]cc(-c4ccccc4)c23)c(F)c1)c1cn(C2CC2)c2cc(N3CCNCC3)c(F)cc2c1=O [TL4800095, 1-cyclopropyl-6-fluoro-N-(3-fluoro-4-((5-phenyl-7H-pyrrolo[2,3-d]pyrimidin-4-yl)oxy)phenyl)-4-oxo-7-(piperazin-1-yl)-1,4-dihydroquinoline-3-carboxamide]
9 | 78 nM | CCc1c(C(=O)Nc2ccc(Oc3ncnc4[nH]cc(-c5ccccc5)c34)c(F)c2)c(=O)c2cc(C)ccc2n1C [TL4800139, 2-ethyl-N-(3-fluoro-4-(5-phenyl-7H-pyrrolo[2,3-d]pyrimidin-4-yloxy)phenyl)-1,6-dimethyl-4-oxo-1,4-dihydroquinoline-3-carboxamide]
10 | 3120 nM | Cc1c(C(=O)Nc2ccc(Oc3ncnc4[nH]cc(-c5ccccc5)c34)c(F)c2)c(=O)c2cc(Br)ccc2n1C [TL50133, 6-bromo-N-(3-fluoro-4-((5-phenyl-7H-pyrrolo[2,3-d]pyrimidin-4-yl)oxy)phenyl)-1,2-dimethyl-4-oxo-1,4-dihydroquinoline-3-carboxamide]
11 | > 10000 nM | Cc1c(C(=O)Nc2ccc(Oc3ncnc4[nH]cc(-c5ccccc5)c34)c(F)c2)c(=O)c2c(Cl)cccc2n1C [TL50081, 5-chloro-N-(3-fluoro-4-((5-phenyl-7H-pyrrolo[2,3-d]pyrimidin-4-yl)oxy)phenyl)-1,2-dimethyl-4-oxo-1,4-dihydroquinoline-3-carboxamide]
12 | > 10000 nM | Cc1c(C(=O)Nc2ccc(Oc3ncnc4[nH]cc(-c5ccccc5)c34)c(F)c2)c(=O)c2ccccc2n1C [TL50054, N-(3-fluoro-4-((5-phenyl-7H-pyrrolo[2,3-d]pyrimidin-4-yl)oxy)phenyl)-1,2-dimethyl-4-oxo-1,4-dihydroquinoline-3-carboxamide]
13 | > 10000 nM | Cc1ccc2c(c1)c(=O)c(C(=O)Nc1ccc(Oc3ncnc4c3c(-c3ccccc3)cn4C)c(F)c1)c(C)n2C [TL50134, N-(3-fluoro-4-(7-methyl-5-phenyl-7H-pyrrolo[2,3-d]pyrimidin-4-yloxy)phenyl)-1,2,6-trimethyl-4-oxo-1,4-dihydroquinoline-3-carboxamide]
14 | 146 nM | CCn1c(C)c(C(=O)Nc2ccc(Oc3ncnc4[nH]cc(-c5ccccc5)c34)c(F)c2)c(=O)c2cc(C)ccc21 [TL4800067, 1-ethyl-N-(3-fluoro-4-(5-phenyl-7H-pyrrolo[2,3-d]pyrimidin-4-yloxy)phenyl)-2,6-dimethyl-4-oxo-1,4-dihydroquinoline-3-carboxamide]
15 | 195 nM | Cc1c(C(=O)Nc2ccc(Oc3ncnc4[nH]cc(-c5ccccc5)c34)c(F)c2)c(=O)c2cc(C3CCCC3)ccc2n1C [TL50161, 6-cyclopentyl-N-(3-fluoro-4-((5-phenyl-7H-pyrrolo[2,3-d]pyrimidin-4-yl)oxy)phenyl)-1,2-dimethyl-4-oxo-1,4-dihydroquinoline-3-carboxamide]
16 | 627 nM | CC1CCc2c(N3CCC(O)CC3)c(F)cc3c(=O)c(C(=O)Nc4ccc(Oc5ncnc6[nH]cc(-c7ccccc7)c56)c(F)c4)cn1c23 (stereo not drawn) [GDL5000076, 9-fluoro-N-(3-fluoro-4-((5-phenyl-7H-pyrrolo[2,3-d]pyrimidin-4-yl)oxy)phenyl)-8-(4-hydroxypiperidin-1-yl)-5-methyl-1-oxo-1,5,6,7-tetrahydropyrido[3,2,1-ij]quinoline-2-carboxamide]
17 | 888 nM | CCc1ccc2c(c1)c(=O)c(C(=O)Nc1ccc(Oc3ccnc(N)c3)c(F)c1)c(C)n2C [GDL5000050, N-(4-(2-aminopyridin-4-yloxy)-3-fluorophenyl)-6-ethyl-1,2-dimethyl-4-oxo-1,4-dihydroquinoline-3-carboxamide]
18 | 277 nM | CCN1CCN(c2cc3c(cc2F)c(=O)c(C(=O)Nc2ccc(Oc4ncnc5cc(OC)c(OC)cc45)c(F)c2)cn3C2CC2)CC1 [GDL5000093, 1-cyclopropyl-N-(4-(6,7-dimethoxyquinazolin-4-yloxy)-3-fluorophenyl)-7-(4-ethylpiperazin-1-yl)-6-fluoro-4-oxo-1,4-dihydroquinoline-3-carboxamide]
19 | 152 nM | Cc1ccc2c(c1)c(=O)c(C(=O)Nc1ccc(Oc3ncnc4[nH]cc(-c5ccccc5)c34)c(F)c1)cn2C [TL4800167, N-(3-fluoro-4-(5-phenyl-7H-pyrrolo[2,3-d]pyrimidin-4-yloxy)phenyl)-1,6-dimethyl-4-oxo-1,4-dihydroquinoline-3-carboxamide]
20 | 569 nM | Cc1c(C(=O)Nc2ccc(Oc3ccnc4[nH]nc(-c5ccccc5)c34)c(F)c2)c(=O)c2cc(Cl)ccc2n1C [TL50025, 6-chloro-N-(3-fluoro-4-((3-phenyl-1H-pyrazolo[3,4-b]pyridin-4-yl)oxy)phenyl)-1,2-dimethyl-4-oxo-1,4-dihydroquinoline-3-carboxamide]
21 | 64 nM | CCn1cc(C(=O)Nc2ccc(Oc3ncnc4cc(OC)c(OC)cc34)c(F)c2)c(=O)c2cc(F)c(N3CCNCC3)nc21 [GDL5000102, N-(4-((6,7-dimethoxyquinazolin-4-yl)oxy)-3-fluorophenyl)-1-ethyl-6-fluoro-4-oxo-7-(piperazin-1-yl)-1,4-dihydro-1,8-naphthyridine-3-carboxamide]
22 | 78 nM | Cc1ccc2c(c1)c(=O)c(C(=O)Nc1ccc(Oc3ncnc4[nH]cc(-c5ccccc5)c34)c(F)c1)c(-c1ccccc1)n2C [TL4800144, N-(3-fluoro-4-(5-phenyl-7H-pyrrolo[2,3-d]pyrimidin-4-yloxy)phenyl)-1,6-dimethyl-4-oxo-2-phenyl-1,4-dihydroquinoline-3-carboxamide]
23 | > 10000 nM | CCc1ccc2c(c1)c(=O)c(C(=O)Nc1ccc(Oc3ccnc(NCc4ccccc4)c3)c(F)c1)c(C)n2C

Row | Molecule | IC50
24 | 6-ethyl-N-(3-fluoro-4-(3-phenylfuro[2,3-b]pyridin-4-yloxy)phenyl)-1,2-dimethyl-4-oxo-1,4-dihydroquinoline-3-carboxamide [GDL5000039] | 192 nM

From patent US10683278B2 (JINAN UNIVERSITY, priority 2015, dated 2020)
